The target of the test is T1, human KDR enzyme (Homo sapiens, UniProt P35968).
T1 construct: The cytoplasmic domain of human KDR enzyme is cloned in the form of a GST fusion; GST; made in house; host or cells: SF21 insect cells (baculovirus, pFastBac)
T1 sequence (P35968 786-1356 limits assumed): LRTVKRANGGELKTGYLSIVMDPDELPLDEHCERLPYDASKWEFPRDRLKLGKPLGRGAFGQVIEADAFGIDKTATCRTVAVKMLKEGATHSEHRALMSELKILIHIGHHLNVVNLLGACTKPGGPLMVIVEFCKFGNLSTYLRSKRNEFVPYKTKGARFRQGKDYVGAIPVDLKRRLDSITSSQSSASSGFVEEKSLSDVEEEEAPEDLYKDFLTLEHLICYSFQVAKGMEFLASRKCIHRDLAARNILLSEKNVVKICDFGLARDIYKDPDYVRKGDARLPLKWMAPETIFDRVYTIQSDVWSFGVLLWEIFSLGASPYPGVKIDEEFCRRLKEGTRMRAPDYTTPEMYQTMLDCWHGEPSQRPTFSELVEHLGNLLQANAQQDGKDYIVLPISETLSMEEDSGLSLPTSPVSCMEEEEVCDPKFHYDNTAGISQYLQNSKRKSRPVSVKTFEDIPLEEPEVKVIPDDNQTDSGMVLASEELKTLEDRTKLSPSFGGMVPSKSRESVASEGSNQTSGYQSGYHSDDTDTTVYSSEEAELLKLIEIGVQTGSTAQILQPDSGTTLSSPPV
Kind of test: Phosphorylation of the substrate PLCγ by the enzyme KDR in vitro (flashplate technique). As to conditions: Table VII, degrees of activity by IC50 range; read-out: Activity. The class given is biochemical. The method, then: The inhibitory effect of the compounds is determined in a test of phosphorylation of a substrate by the enzyme KDR in vitro by the flasplate technique (96-well plate, NEN). The cytoplasmic domain of human KDR enzyme is cloned in the form of a GST fusion into the baculovirus expression vector pFastBac. The protein is expressed in the SF21 cells and purified to about 60% homogeneity.
The kinase activity of KDR is measured in 20 mM MOPS, 10 mM MgCl2, 10 mM MnCl2, 1 mM DTT, 2.5 mM EGTA, 10 mM β-glycerophosphate, pH 7.2 in the presence of 10 mM MgCl2, 100 μM Na3VO4, 1 mM NaF. 10 μl of the compound are added to 70 μl of kinase buffer containing 100 ng of KDR enzyme at 4° C. The reaction is initiated by adding 20 μl of solution containing 2 μg of substrate (fragment SH2-SH3 of PLCγ expressed in the form of a GST fusion protein), 2 μCi γ33P[ATP] and 2 μM cold ATP. After incubating for 1 h at 37° C., the reaction is quenched by adding 1 volume (100 μl) of 200 mM EDTA. The incubation buffer is removed and the wells are washed three times with 300 μl of PBS. The radioactivity is measured in each well using a Top Count NXT instrument (Packard).
Background noise is determined by measuring the radio-activity in wells in quadruplet containing radioactive ATP and the substrate alone.
An activity control is measured in wells in quadruplet containing all the reagents (γ33P-[ATP], KDR and the substrate PLCγ) and in the absence of compound.
The inhibition of the KDR activity with the compound of the invention is expressed as a percentage of inhibition of the control activity determined in the absence of compound.
The compound SU5614 (Calbiochem) (1 μM) is included in each plate as inhibition control.
The IC50 values for the compounds are calculated by plotting the dose-response curves. The IC50 corresponds to the concentration of compound that induces a 50% inhibition of the kinase activity.
Turning to `O=C(NCc1csc2ccccc12)c1ccc2[nH]c(-c3n[nH]c4ccccc34)nc2c1` [Example 42, 2-(1H-Indazol-3-yl)-1H-benzoimidazole-5-carboxylic acid (benzo[b]thiophen-3-ylmethyl)-amide], the IC50 was in the range of 300 to 3000 nM.

For the molecule `Cc1nn(C)cc1CNC(=O)c1ccc2[nH]c(-c3n[nH]c4ccccc34)nc2c1` [Example 43, 2-(1H-Indazol-3-yl)-1H-benzoimidazole-5-carboxylic acid (1,3-dimethyl-1H-pyrazol-4-ylmethyl)-amide], the IC50 lay in the range of 300 to 3000 nM.

In the case of `O=C(NCc1ccccc1OC(F)(F)F)c1ccc2[nH]c(-c3n[nH]c4ccccc34)nc2c1` [Example 44, 2-(1H-Indazol-3-yl)-1H-benzoimidazole-5-carboxylic acid 2-trifluoromethoxy-benzylamide], the IC50 fell in the range of 300 to 3000 nM.

As to `Cc1ccccc1CNC(=O)c1ccc2[nH]c(-c3n[nH]c4ccccc34)nc2c1` [Example 45, 2-(1H-Indazol-3-yl)-1H-benzoimidazole-5-carboxylic acid 2-methyl-benzylamide], the IC50 was < 300 nM.

In the case of `Cc1ccsc1CNC(=O)c1ccc2[nH]c(-c3n[nH]c4ccccc34)nc2c1` [Example 46, 2-(1H-Indazol-3-yl)-1H-benzoimidazole-5-carboxylic acid (3-methyl-thiophen-2-ylmethyl)-amide], the IC50 fell in the range of 300 to 3000 nM.

On to `O=C(NCc1ccccc1C(F)(F)F)c1ccc2[nH]c(-c3n[nH]c4ccccc34)nc2c1` [Example 47, 2-(1H-Indazol-3-yl)-1H-benzoimidazole-5-carboxylic acid 2-trifluoromethyl-benzylamide], for which the IC50 is 300 to 3000 nM.

Take `O=C(NCc1ccc(Oc2ccccc2)cc1)c1ccc2[nH]c(-c3n[nH]c4ccccc34)nc2c1` [Example 48, 2-(1H-Indazol-3-yl)-1H-benzoimidazole-5-carboxylic acid 4-phenoxy-benzylamide]: the IC50 lay within 300 to 3000 nM.

As to `O=C(NCc1cccc(OC(F)(F)F)c1)c1ccc2[nH]c(-c3n[nH]c4ccccc34)nc2c1` [Example 49, 2-(1H-Indazol-3-yl)-1H-benzoimidazole-5-carboxylic acid 3-trifluoromethoxy-benzylamide], the IC50 lay within 300 to 3000 nM.

With `CC(C)OCCCNC(=O)c1ccc2[nH]c(-c3n[nH]c4ccccc34)nc2c1` [Example 50, 2-(1H-Indazol-3-yl)-1H-benzoimidazole-5-carboxylic acid (3-isopropoxy-propyl)-amide], the IC50 lay within 300 to 3000 nM.

For `Cn1cc(CNC(=O)c2ccc3[nH]c(-c4n[nH]c5ccccc45)nc3c2)cn1` [Example 51, 2-(1H-Indazol-3-yl)-1H-benzoimidazole-5-carboxylic acid (1-methyl-1H-pyrazol-4-ylmethyl)-amide], the IC50 was 300 to 3000 nM.

In the case of `CC(C)c1ccc(CNC(=O)c2ccc3[nH]c(-c4n[nH]c5ccccc45)nc3c2)cc1` [Example 52, 2-(1H-Indazol-3-yl)-1H-benzoimidazole-5-carboxylic acid 4-isopropyl-benzylamide], the IC50 is 300 to 3000 nM.

On to `Cc1cc(CNC(=O)c2ccc3[nH]c(-c4n[nH]c5ccccc45)nc3c2)c(C)o1` [Example 53, 2-(1H-Indazol-3-yl)-1H-benzoimidazole-5-carboxylic acid (2,5-dimethyl-furan-3-ylmethyl)-amide], for which the IC50 lay within 300 to 3000 nM.

Take `O=C(NCc1cc2ccccc2s1)c1ccc2[nH]c(-c3n[nH]c4ccccc34)nc2c1` [Example 54, 2-(1H-Indazol-3-yl)-1H-benzoimidazole-5-carboxylic acid (benzo[b]thiophen-2-ylmethyl)-amide]: the IC50 was in the range of 300 to 3000 nM.

`CC(=O)Nc1cccc(OCCCNC(=O)c2ccc3[nH]c(-c4n[nH]c5ccccc45)nc3c2)c1` [Example 55, 2-(1H-Indazol-3-yl)-1H-benzoimidazole-5-carboxylic acid [3-(3-acetylamino-phenoxy)-propyl]-amide]: the IC50 lay in the range of 300 to 3000 nM.

For the molecule `O=C(NCc1ccc(Cl)nc1)c1ccc2[nH]c(-c3n[nH]c4ccccc34)nc2c1` [Example 56, 2-(1H-Indazol-3-yl)-1H-benzoimidazole-5-carboxylic acid (6-chloro-pyridin-3-ylmethyl)-amide], the IC50 was < 300 nM.

For the molecule `O=C(NCc1ccc(-c2cccs2)s1)c1ccc2[nH]c(-c3n[nH]c4ccccc34)nc2c1` [Example 57, 2-(1H-Indazol-3-yl)-1H-benzoimidazole-5-carboxylic acid ([2,2′]bithiophenyl-5-ylmethyl)-amide], the IC50 was in the range of 300 to 3000 nM.

As for `O=C(NCc1ccc2c(c1)CCO2)c1ccc2[nH]c(-c3n[nH]c4ccccc34)nc2c1` [Example 58, 2-(1H-Indazol-3-yl)-1H-benzoimidazole-5-carboxylic acid (2,3-dihydro-benzofuran-5-ylmethyl)-amide], the IC50 is < 300 nM.

On to `N#Cc1ccc(CNC(=O)c2ccc3[nH]c(-c4n[nH]c5ccccc45)nc3c2)cc1` [Example 59, 2-(1H-Indazol-3-yl)-1H-benzoimidazole-5-carboxylic acid 4-cyano-benzylamide], for which the IC50 is 300 to 3000 nM.

Take `O=C(NCc1csc2ccc(Cl)cc12)c1ccc2[nH]c(-c3n[nH]c4ccccc34)nc2c1` [Example 60, 2-(1H-Indazol-3-yl)-1H-benzoimidazole-5-carboxylic acid (5-chloro-benzo[b]thiophen-3-ylmethyl)-amide]: the IC50 is > 3000 nM.

For `O=C(NCc1cccc(C(F)(F)F)c1)c1ccc2[nH]c(-c3n[nH]c4ccccc34)nc2c1` [Example 61, 2-(1H-Indazol-3-yl)-1H-benzoimidazole-5-carboxylic acid 3-trifluoromethyl-benzylamide], the IC50 was > 3000 nM.

For `CSc1ccccc1CNC(=O)c1ccc2[nH]c(-c3n[nH]c4ccccc34)nc2c1` [Example 62, 2-(1H-Indazol-3-yl)-1H-benzoimidazole-5-carboxylic acid 2-methylsulfanyl-benzylamide], the IC50 was < 300 nM.

`O=C(NCc1csc2ccccc12)c1ccc2[nH]c(-c3n[nH]c4ccccc34)nc2c1` [Example 63, 2-(1H-Indazol-3-yl)-1H-benzoimidazole-5-carboxylic acid (benzo[b]thiophen-3-ylmethyl)-amide]: the IC50 is < 300 nM.

For the molecule `O=C(NCC1CCOCC1)c1ccc2[nH]c(-c3n[nH]c4ccccc34)nc2c1` [Example 64, 2-(1H-Indazol-3-yl)-1H-benzoimidazole-5-carboxylic acid (tetrahydro-pyran-4-ylmethyl)-amide], the IC50 lay in the range of 300 to 3000 nM.

As for `O=C(NCC1COc2ccccc2O1)c1ccc2[nH]c(-c3n[nH]c4ccccc34)nc2c1` (stereo not shown) [Example 65, 2-(1H-Indazol-3-yl)-1H-benzoimidazole-5-carboxylic acid (2,3-dihydro-benzo[1,4]dioxin-2-ylmethyl)-amide], the IC50 lay in the range of 300 to 3000 nM.

For the molecule `O=C(NCc1ccoc1)c1ccc2[nH]c(-c3n[nH]c4ccccc34)nc2c1` [Example 66, 2-(1H-Indazol-3-yl)-1H-benzoimidazole-5-carboxylic acid (furan-3-ylmethyl)-amide], the IC50 fell in the range of 300 to 3000 nM.

As to `O=C(NCc1ccccc1[N+](=O)[O-])c1ccc2[nH]c(-c3n[nH]c4ccccc34)nc2c1` [Example 67, 2-(1H-Indazol-3-yl)-1H-benzoimidazole-5-carboxylic acid 2-nitro-benzylamide], the IC50 lay in the range of 300 to 3000 nM.

For `O=C(NCc1ccsc1)c1ccc2[nH]c(-c3n[nH]c4ccccc34)nc2c1` [Example 68, 2-(1H-Indazol-3-yl)-1H-benzoimidazole-5-carboxylic acid (thiophen-3-ylmethyl)-amide], the IC50 is 300 to 3000 nM.

Consider `Cc1cc(C)cc(CNC(=O)c2ccc3[nH]c(-c4n[nH]c5ccccc45)nc3c2)c1` [Example 69, 2-(1H-Indazol-3-yl)-1H-benzoimidazole-5-carboxylic acid 3,5-dimethyl-benzylamide], for which the IC50 lay within 300 to 3000 nM.

`Cn1c(CNC(=O)c2ccc3[nH]c(-c4n[nH]c5ccccc45)nc3c2)nc2ccccc21` [Example 70, 2-(1H-Indazol-3-yl)-1H-benzoimidazole-5-carboxylic acid (1-methyl-1H-benzoimidazol-2-ylmethyl)-amide]: the IC50 is 300 to 3000 nM.

On to `Cc1cccc(CNC(=O)c2ccc3[nH]c(-c4n[nH]c5ccccc45)nc3c2)c1` [Example 71, 2-(1H-Indazol-3-yl)-1H-benzoimidazole-5-carboxylic acid 3-methyl-benzylamide], for which the IC50 is < 300 nM.

`O=C(NCc1cccc(Cl)c1)c1ccc2[nH]c(-c3n[nH]c4ccccc34)nc2c1` [Example 72, 2-(1H-Indazol-3-yl)-1H-benzoimidazole-5-carboxylic acid 3-chloro-benzylamide]: the IC50 is < 300 nM.
